Measured values: article PMC3430861, “The pharmacological profile of ELIC, a prokaryotic GABA-gated receptor” (Neuropharmacology, 2012)
Read-outs that look alike come from different tables or passages of the source.

Legend:
[1] = biological target: T1, ELIC (Dickeya chrysanthemi, UniProt P0C7B7, INS163G); test: cell-based; type: cell-based, Erwinia chrysanthemi
T1 construct: expressed in transfected cells; host or cells: Xenopus laevis oocytes injected with cRNA
Method: Xenopus laevis oocyte-positive females were purchased from NASCO (Fort Atkinson, Wisconsin, USA) and maintained according to standard methods.
(§1) The ELIC sequence (Genbank accession number POC7B7) was purchased from Genscript as a synthetic gene with optimized codon usage for expression in Escherichia coli. […] Stage V and VI oocytes were injected with 20 ng cRNA, and currents recorded 1–3 days post-injection.

[2] = biological target: RDL, a GABA-activated insect receptor; parameters: method as in McGonigle and Lummis, 2010; conditions: ref McGonigle and Lummis, 2010, cited from earlier work
[3] = biological target: T2, ELIC (Dickeya chrysanthemi, UniProt P0C7B7); test: cell-based; type: cell-based, Erwinia chrysanthemi
T2 sequence (P0C7B7 8-321): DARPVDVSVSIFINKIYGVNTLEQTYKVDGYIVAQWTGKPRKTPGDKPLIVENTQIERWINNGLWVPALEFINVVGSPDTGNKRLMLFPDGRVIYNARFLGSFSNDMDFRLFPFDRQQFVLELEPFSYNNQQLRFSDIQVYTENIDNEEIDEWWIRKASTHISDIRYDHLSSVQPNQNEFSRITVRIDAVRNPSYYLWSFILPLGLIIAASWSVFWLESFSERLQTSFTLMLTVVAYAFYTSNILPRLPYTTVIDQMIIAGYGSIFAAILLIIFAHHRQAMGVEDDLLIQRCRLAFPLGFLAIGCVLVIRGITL
Method: Xenopus laevis oocyte-positive females were purchased from NASCO (Fort Atkinson, Wisconsin, USA) and maintained according to standard methods. Harvested stage V–VI Xenopus oocytes were washed in four changes of ND96 (96 mM NaCl, 2 mM KCl, 1 mM MgCl2, 5 mM HEPES, pH 7.5), de-folliculated in 1.5 mg ml^−1 collagenase Type 1A for approximately 2 h, washed again in four changes of ND96 and stored in ND96 containing 2.5 mM sodium pyruvate, […], 0.7 mM theophylline.
as §1

[4] = test system: GLIC; parameters: method as in Alqazzaz et al., 2011; conditions: ref Alqazzaz et al., 2011, cited from earlier work; for inhibition of GLIC (yes/no): comparison ELIC vs GLIC
[5] = biological target: T2, ELIC; test: Inhibition of cysteamine-induced ELIC responses; type: cell-based, Erwinia chrysanthemi; conditions: data not shown
[6] = 10 mM, read-out: pEC50 (EC50): agonist effect at the concentration shown (converted)
[7] = 1 mM, read-out: pEC50 (EC50): agonist effect at the concentration shown (converted)
[8] = Hill coefficient of inhibition curve
[9] = IC50, wild type ELIC, at the GABA EC50 (1.6 mM)
[10] = pIC50 (Mean ± SEM), wild type ELIC, at the GABA EC50 (1.6 mM)

NCCCP(=O)(O)O [3-aminophosphonic acid]
effect on ELIC (agonist test) ([1]; 100 mM): no effect
EC50 ([1]; 100 mM, read-out: pEC50 (EC50): agonist effect at the concentration shown (converted)): > 10000 µM

O=C(O)Cc1c[nH]c2ccccc12 [3-indole acetic acid]
effect on ELIC (agonist test) ([1]; 10 mM): no effect
EC50 [1, 6]: > 10000 µM

NCCc1c[nH]c2ccc(O)cc12 [5-HT]
EC50 [1, 7]: > 10000 µM
effect on ELIC (agonist test) ([1]; 10 mM): no ELIC responses

NCCCCC(=O)O [5-aminovaleric acid]
concentration required to activate ELIC [1]: > 10 mM
EC50 ([2]; RDL): 1100 µM
Rmax ([2]; RDL): 0.85

Oc1ccc2[nH]ccc2c1 [5-hydroxyindole]
inhibition of ELIC (yes/no) [3]: inhibiting neither

CC(=O)OCC[N+](C)(C)C [ACh]
EC50 [1, 7]: > 10000 µM
effect on ELIC (agonist test) ([1]; 10 mM): no ELIC responses

C[C@H](N)C(=O)O [Alanine]
effect on ELIC (agonist test) ([1]; 1 mM): no effect

NC12CC3CC(CC(C3)C1)C2 [Amantadine]
inhibition of GLIC (yes/no) [4]: inhibiting both receptors
inhibition of ELIC (yes/no) [3]: inhibiting both receptors
nH [3, 8]: 2.5 ± 0.4
IC50 ([3]; IC50): 370 µM
IC50 ([3]; pIC50 (Mean ± SEM)): 372 µM

N=C(N)NCCC[C@H](N)C(=O)O [Arginine]
effect on ELIC (agonist test) ([1]; 1 mM): no effect

NC(=O)C[C@H](N)C(=O)O [Asparagine]
effect on ELIC (agonist test) ([1]; 1 mM): no effect

N[C@@H](CC(=O)O)C(=O)O [Aspartate]
effect on ELIC (agonist test) ([1]; 1 mM): no effect

CN1CCc2cc3c(cc2[C@H]1[C@@H]1OC(=O)c2c1ccc1c2OCO1)OCO3 [Bicuculline]
effect when co-applied in the presence of GABA ([3]; 100 μM): no effect
pIC50: no inhibition ([3]; wild type ELIC, at the GABA EC50 (1.6 mM)): NI* (no inhibition at 100 μM)

CC(C)(C)[C@]1(O)CC2OC(=O)CC23C(=O)OC2OC(=O)[C@H](O)C231 (stereo partly drawn) [Bilobalide]
nH [3, 8]: 1.3 ± 0.2
IC50 [3, 9]: 330 µM
IC50 [3, 10]: 331 µM

CN(C)CCCN1c2ccccc2Sc2ccc(Cl)cc21 [Chlorpromazine]
inhibition of GLIC (yes/no) [4]: inhibiting both receptors
inhibition of ELIC (yes/no) [3]: inhibiting both receptors
nH [3]: 1.2 ± 0.4
IC50 ([3]; IC50): 230 µM
IC50 ([3]; pIC50 (Mean ± SEM)): 229 µM

N[C@@H](CS)C(=O)O [Cysteine]
effect on ELIC (agonist test) ([1]; 1 mM): no effect

C[C@@H]1C[C@H]2[C@@H]3CCC4=CC(=O)C=C[C@]4(C)[C@@]3(F)[C@@H](O)C[C@]2(C)[C@@]1(O)C(=O)CO [Dexamethasone]
inhibition of ELIC (yes/no) ([3]; comparison ELIC vs GLIC): inhibiting neither

ClC1=C(Cl)[C@]2(Cl)[C@@H]3[C@@H]4C[C@@H]([C@H]5O[C@@H]45)[C@@H]3[C@@]1(Cl)C2(Cl)Cl [Dieldrin]
nH [3]: 1.1 ± 0.1
IC50 ([3]; IC50): 66 µM
IC50 ([3]; pIC50 (Mean ± SEM)): 66.1 µM

N#Cc1nn(-c2c(Cl)cc(C(F)(F)F)cc2Cl)c(N)c1[S+]([O-])C(F)(F)F (stereo not drawn) [Fipronil]
inhibition of GLIC (yes/no) [4]: inhibiting both receptors
inhibition of ELIC (yes/no) [3]: inhibiting both receptors
nH [3]: 1.8 ± 0.4
IC50 ([3]; IC50): 350 µM
IC50 ([3]; pIC50 (Mean ± SEM)): 347 ± 4.01 µM

NCCCC(=O)O [GABA]
Hill Slope ([1]; wild type ELIC, agonist concentration-response): 2.1 ± 0.6
pEC50 ([1]; wild type ELIC, oocytes clamped at −60 mV): 2.78 ± 0.04
EC50 ([1]; wild type ELIC, oocytes clamped at −60 mV, read-out: EC50 (converted)): 1600 µM

COc1ccc(-c2ccc(=N)n(CCCC(=O)O)n2)cc1 [Gabazine (SR-95531), Gabazine]
effect when co-applied in the presence of GABA [3]: no effect

NC(=O)CC[C@H](N)C(=O)O [Glutamine]
effect on ELIC (agonist test) ([1]; 1 mM): no effect
effect when co-applied in the presence of GABA [3]: no effect

NCC(=O)O [Glycine]
EC50 [1, 7]: > 10000 µM
effect on ELIC (agonist test) ([1]; 10 mM): no ELIC responses
EC50 [1, 6]: > 10000 µM

N[C@@H](Cc1c[nH]cn1)C(=O)O [Histidine]
effect on ELIC (agonist test) ([1]; 1 mM): no effect
effect when co-applied in the presence of GABA [3]: no effect

O=[N+]([O-])NC1=NCCN1Cc1ccc(Cl)nc1 [Imidaclopride]
inhibition of ELIC (yes/no) [3]: inhibiting neither

CC[C@H](C)[C@H](N)C(=O)O [Isoleucine]
effect on ELIC (agonist test) ([1]; 1 mM): no effect

N[C@@H](CCC(=O)O)C(=O)O [L-glutamate]
effect on ELIC (agonist test) ([1]; 1 mM): no effect
effect on ELIC (agonist test) ([1]; 10 mM): did not activate ELIC

CC(C)C[C@H](N)C(=O)O [Leucine]
effect on ELIC (agonist test) ([1]; 1 mM): no effect

NCCCC[C@H](N)C(=O)O [Lysine]
effect on ELIC (agonist test) ([1]; 1 mM): no effect

CSCC[C@H](N)C(=O)O [Methionine]
effect on ELIC (agonist test) ([1]; 1 mM): no effect

CC(=O)O[C@H]1C[C@@H]2CC[C@@H]3[C@H](CC[C@@]4(C)[C@H]3C[C@H]([N+]3(C)CCCCC3)[C@@H]4OC(C)=O)[C@@]2(C)C[C@@H]1[N+]1(C)CCCCC1 [Pancuronium]
pIC50: no inhibition [3]: NI (key: NI: no inhibition at 10 mM; NI*: no inhibition at 100 μM)

N[C@@H](Cc1ccccc1)C(=O)O [Phenylalanine]
effect on ELIC (agonist test) ([1]; 1 mM): no effect

C=C(C)[C@@H]1[C@H]2OC(=O)[C@@H]1[C@]1(O)C[C@H]3O[C@]34C(=O)O[C@H]2[C@]14C [Picrotoxinin]
inhibition of GLIC (yes/no) [4]: inhibiting both receptors
nH [3, 8]: 1.2 ± 0.6
IC50 [3, 9]: 96 µM
inhibition of ELIC (yes/no) ([3]; comparison ELIC vs GLIC): inhibiting both receptors
IC50 [3, 10]: 87.1 µM
inhibition of cysteamine-induced responses compared to inhibition of GABA-induced responses [5]: no significant differences

CCCC(C(=O)OCCN(CC)CC)(c1ccccc1)c1ccccc1 [Proadifen]
nH [3]: 2.9 ± 0.6
pIC50 (Mean ± SEM) [3]: 5.09 ± 0.04
IC50 ([3]; IC50): < 20 µM
IC50 ([3]; read-out: IC50): 8.1 µM

CC(=O)[C@H]1CC[C@H]2[C@@H]3CCC4=CC(=O)CC[C@]4(C)[C@H]3CC[C@]12C [Progesterone]
nH [3]: 1.8 ± 0.58
IC50 ([3]; IC50): 150 µM
IC50 ([3]; pIC50 (Mean ± SEM)): 151 µM

O=C(O)[C@@H]1CCCN1 [Proline]
effect on ELIC (agonist test) ([1]; 1 mM): no effect
effect when co-applied in the presence of GABA [3]: no effect

Cc1cccc(C)c1N=C([O-])C[N+](C)(C)C.Cl [QX-222]
inhibition of ELIC (yes/no) [3]: inhibiting neither
pIC50: no inhibition [3]: NI (key: NI: no inhibition at 10 mM; NI*: no inhibition at 100 μM)

N[C@@H](CO)C(=O)O [Serine]
effect on ELIC (agonist test) ([1]; 1 mM): no effect

C[C@@H](O)[C@H](N)C(=O)O [Threonine]
effect on ELIC (agonist test) ([1]; 1 mM): no effect

N[C@@H](Cc1c[nH]c2ccccc12)C(=O)O [Tryptophan]
effect on ELIC (agonist test) ([1]; 1 mM): no effect

N[C@@H](Cc1ccc(O)cc1)C(=O)O [Tyrosine]
effect on ELIC (agonist test) ([1]; 1 mM): no effect
effect when co-applied in the presence of GABA [3]: no effect

CC(C)[C@H](N)C(=O)O [Valine]
effect on ELIC (agonist test) ([1]; 1 mM): no effect

NCc1cc(=O)[nH]o1 [muscimol]
effect on ELIC (agonist test) ([1]; 30 μM): no effect

O=C(O)[C@@H]1CCC(O)=N1 [pyroglutamate]
effect on ELIC (agonist test) ([1]; 10 mM): did not activate ELIC

O=C([O-])CCC(=O)[O-].[Na+].[Na+] [sodium succinate]
effect on ELIC (agonist test) ([1]; 10 mM): did not activate ELIC
EC50 [1, 6]: > 10000 µM

O=C(O)CCC(=O)O [succinic acid]
effect on ELIC (agonist test) ([1]; 10 mM): did not activate ELIC

CC[N+](CC)(CC)CC [tetraethylammonium]
IC50 ([3]; read-out: IC50): ~20000 µM

C[N+](C)(C)C [tetramethylammonium]
IC50 ([3]; read-out: IC50): ~20000 µM

CCC(N)C(=O)O (stereo not drawn) [α-aminobutyrate]
effect on ELIC (agonist test) ([1]; 10 mM): did not activate ELIC
EC50 [1, 6]: > 10000 µM

O=S1OC[C@@H]2[C@H](CO1)[C@@]1(Cl)C(Cl)=C(Cl)[C@]2(Cl)C1(Cl)Cl (stereo partly drawn) [α-endosulfan]
IC50 ([4]; GLIC): 17 µM
nH [3]: 0.7 ± 0.2
IC50 ([3]; IC50): 17 µM
IC50 ([3]; pIC50 (Mean ± SEM)): 17 µM

O=C(O)CCC(=O)C(=O)O [α-ketoglutarate]
effect on ELIC (agonist test) ([1]; 10 mM): did not activate ELIC
EC50 [1, 6]: > 10000 µM

NCCC(=O)O [β-alanine]
effect on ELIC (agonist test) ([1]; 10 mM): no effect

O=C1CCCO1 [γ-butyrolactone]
effect on ELIC (agonist test) ([1]; 10 mM): did not activate ELIC

O=C(O)CCCO [γ-hydroxybutyric acid]
concentration required to activate ELIC [1]: > 10 mM
% of Rmax at 100 mM ([1]; 100 mM, Rmax = maximal current relative to 10mM GABA): 8.2 ± 3% of Rmax at 100 mM
effect on RDL [2]: no effect

Ivermectin
inhibition of ELIC (yes/no) [3]: inhibiting neither
pIC50: no inhibition [3]: NI (key: NI: no inhibition at 10 mM; NI*: no inhibition at 100 μM)

α-amino hydroxbutyric acid
effect on ELIC (agonist test) ([1]; 10 mM): no effect
EC50 [1, 6]: > 10000 µM
